# Measurements reported in PubChem BioAssay AID1949 (Southern Research Institute, 2009).
# Results filed as inconclusive are left out. Activity calls are given as the source filed them. No rule for the calls is given here.
# System: M. tuberculosis H37Rv growth inhibition
# Test: Mycobacterium tuberculosis H37Rv growth inhibition, cell based, confirmatory dose response (AID 1949);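 also: bacteria grown 7 days with compound before Alamar blue readout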
row,SMILES,IC50
1,COC(=O)Cc1c(C)c2ccc(OCC(=O)c3ccc(Cl)s3)cc2oc1=O,2.49 µg/mL
2,CN1CCN(c2ccc(C(=O)Nc3cccc(Cl)c3)cc2[N+](=O)[O-])CC1,4.41 µg/mL
3,Cc1cc(OCC(=O)NC2C3CC4CC(C3)CC2C4)cc(C)c1Br (stereo unspecified),1.45 µg/mL
4,Cc1cc(Cl)ccc1OCC(=O)Nc1ccc(N2CCN(C)CC2)c(Cl)c1,5.62 µg/mL
5,CC(C)OC(=O)COc1ccc2c(=O)c(Oc3ccccc3Br)coc2c1,13.9 µg/mL
6,CN1CCN(c2ccc(NC(=O)c3cccc(OCc4ccccc4)c3)cc2)CC1,21.4 µg/mL
7,CCOC(=O)c1ccc(NC(=O)c2ccc(C)s2)cc1,2.22 µg/mL
8,O=C(NC(Nc1ccc([N+](=O)[O-])cc1)C(Cl)(Cl)Cl)c1cccc(I)c1 (stereo unspecified),7.08 µg/mL
9,Cc1sc(NC(=O)c2cc3ccccc3oc2=O)c(C(=O)OC(C)C)c1C,0.66 µg/mL
10,CC(=O)N(C)c1ccc(OCC(O)Cn2c3ccc(Cl)cc3c3cc(Cl)ccc32)cc1 (stereo unspecified),2.96 µg/mL
11,COc1ccc(C(=O)NC(=S)Nc2ccc(N3CCCCC3)cc2)cc1OC,1.38 µg/mL
12,Cc1ccc(OCC(=O)NC23CC4CC(CC(C4)C2)C3)cc1C,3.77 µg/mL
13,Cc1cc(C)cc(OCC(=O)Nc2ccc3oc(-c4ccc(F)cc4)nc3c2)c1,> 50 µg/mL (inactive)
14,O=C(NC(=S)Nc1ccc(F)cc1)c1ccc(Br)cc1,0.95 µg/mL
15,COc1ccc(N/C(N)=N/c2nc(-c3cccs3)cc(C(F)(F)F)n2)cc1,> 50 µg/mL (inactive)
16,COC(=O)c1ccc(COC(=O)c2ccccc2OC)cc1,2.87 µg/mL
17,O=C(Nc1ccc(N2CCN(Cc3ccccc3F)CC2)cc1)c1ccc([N+](=O)[O-])o1,0.28 µg/mL
18,CCOc1cc(CNC(C)C23CC4CC(CC(C4)C2)C3)cc(Cl)c1OCC(=O)NC(C)(C)C (stereo unspecified),3.06 µg/mL
19,Cc1cc(Br)cc2c1N(CCCOc1ccccc1)C(=O)C2=O,9.2 µg/mL
20,COc1cc(CNC(C)c2ccccc2)cc(Br)c1OCc1ccc(F)cc1 (stereo unspecified),4.06 µg/mL
21,O=C(c1ccccc1)c1ccc2nc(-c3cccc(NC(=O)C4CC4)c3)[nH]c2c1,7.78 µg/mL
22,Cc1ccc(SCC(=O)Nc2cccc(F)c2)cc1,5.34 µg/mL
23,COC(=O)COc1ccc(NC(=O)c2ccccc2Br)cc1,1.17 µg/mL
24,CCOC(=O)C1=C(C)N=c2s/c(=C\c3ccc([N+](=O)[O-])o3)c(=O)n2C1c1ccc(OCC)cc1 (stereo unspecified),> 50 µg/mL (inactive)

row,SMILES,IC50
1,CCOC(=O)c1cccc(NC(=O)C(Cl)Cl)c1,3.07 µg/mL
2,O=C1c2ccccc2C2=Nc3cc(Cl)ccc3OC12O (stereo unspecified),5.5 µg/mL
3,COc1ccc(Cn2c(=O)c3c(n4cnnc24)-c2ccccc2CC32CCCCC2)cc1,2.84 µg/mL
4,O=C(Nc1ccc(Cl)cc1C(F)(F)F)c1ccc([N+](=O)[O-])o1,2.42 µg/mL
5,COC(=O)c1sc2nc(-c3ccccc3)nc(N3CCN(C)CC3)c2c1C,> 50 µg/mL (inactive)
6,COc1ccccc1NC(=O)c1cnc(SC)nc1,3.97 µg/mL
7,COc1ccc2c(c1)CC1=C2CCC2(C)C1=CCC2OC(C)=O (stereo unspecified),21.6 µg/mL
8,O=C(NC(Nc1cccc([N+](=O)[O-])c1)C(Cl)(Cl)Cl)c1cccc(I)c1 (stereo unspecified),11.7 µg/mL
9,COC(=O)c1ccc(NC(=O)COc2ccc(-c3ccc(C#N)cc3)cc2)cc1,0.41 µg/mL
10,O=C(CC1(O)C(=O)N(CCc2ccccc2)c2ccc(Cl)cc21)c1ccccn1 (stereo unspecified),5.07 µg/mL
11,CCc1ccc(S(=O)(=O)Nc2ccc(I)cc2)cc1,11.7 µg/mL
12,CCC(=O)Oc1cccc2ccc(/C=C/c3ccccc3F)nc12,< 0.1 µg/mL
13,O=C(NC1C2CC3CC(C2)CC1C3)c1ccc(-c2ccc(Cl)cc2)o1 (stereo unspecified),10.9 µg/mL
14,CCCC1(O)CC(c2ccc(Cl)cc2)NC(c2ccc(Cl)cc2)C1C (stereo unspecified),2.34 µg/mL
15,O=C(CC(O)(C(F)(F)F)C(F)(F)F)Nc1ccc(Oc2ccccc2)cc1,7.49 µg/mL
16,CCc1nc2sc(C(=O)NCc3ccc(F)cc3)c(N)c2c(C(F)(F)F)c1C,2.61 µg/mL
17,COc1ccc(-c2cc(C(=O)N/N=C/C=C/c3ccccc3OC)[nH]n2)cc1,< 0.1 µg/mL
18,FC(F)(F)c1cccc(NC(=S)Nc2cccc(Cl)c2)c1,13.5 µg/mL
19,COC(=O)COc1cccc(NC(=O)c2cccc(C)c2)c1,2.85 µg/mL
20,Cc1ccc(C(=O)Nc2ccc(N3CCN(C)CC3)cc2)cc1Cl,46.2 µg/mL
21,O=[N+]([O-])c1ccc(Sc2n[nH]c(-c3ccccc3)n2)nc1,10 µg/mL
22,CCCCc1ccc(NC(=O)c2cc3cc(Br)cc(OC)c3oc2=O)cc1,0.69 µg/mL
23,O=C(N=Nc1c(O)[nH]c2ccccc12)c1ccc(Cl)cc1,46.7 µg/mL
24,CCOC(=O)COc1ccc2c3c(c(=O)oc2c1)CCCCC3,2.73 µg/mL

row,SMILES,IC50
1,O=C(NCCc1c[nH]c2ccccc12)Nc1ccc(Cl)c(Cl)c1,3.69 µg/mL
2,S=C(NCCc1ccccc1)Nc1ccc(Nc2ccccc2)cc1,3.85 µg/mL
3,Cc1ccc(C(=O)NC(=S)Nc2ccc(S(=O)(=O)NC(C)C)cc2)cc1Br,3.75 µg/mL
4,CCCCSc1ccc(NCCC(=O)c2ccco2)cc1,0.42 µg/mL
5,COc1ccc(C23CC4CC(CC(C4)C2)C3)cc1C(=O)NCCN(C)C,10.8 µg/mL
6,CC(C)(C)c1cc(Cl)c(O)c(NC(=S)NC(=O)c2cccnc2)c1,< 0.1 µg/mL
7,Cc1ccccc1Nc1nc(NCc2ccco2)c2ccccc2n1,2.64 µg/mL
8,Fc1ccc(-c2nn(-c3ccccc3)cc2CNCc2ccccc2)cc1,5.86 µg/mL
9,Cc1cc(C)cc(OCC(=O)c2ccc(Br)cc2)c1,6.8 µg/mL
10,CC(C)c1ccc(NCCC(=O)c2cccs2)cc1,6.34 µg/mL
11,CC(=O)NC(=S)NNC(=O)c1ccc(C)c(Br)c1,1.77 µg/mL
12,Cc1nc2ccccc2n1CC(O)COc1ccc(C2C=CCC2)cc1 (stereo unspecified),1.22 µg/mL
13,CC(C(=O)Oc1cccc2cccnc12)N1C(=O)C2C3C=CC(C4CC34)C2C1=O (stereo unspecified),3.16 µg/mL
14,Nc1nc2ccccc2n1CCOc1cccc2ccccc12,4.95 µg/mL
15,Cc1ccc(C(=O)Oc2ccc(Cl)c3cccnc23)cc1[N+](=O)[O-],0.94 µg/mL
16,CCOC(=O)/C(C#N)=C/c1ccc(-c2ccc(F)cc2)o1,0.25 µg/mL
17,Clc1ccc(-c2nnc(SCc3ccon3)o2)c(Cl)c1,0.79 µg/mL
18,Cc1cc(C)cc(NC(=S)NC2CCCC2)c1,8.73 µg/mL
19,Cc1ccc(-c2nc(C#N)c(NCCCn3ccnc3)o2)cc1,> 50 µg/mL (inactive)
20,O=[N+]([O-])c1ccc2nc(CSc3nc4ccccc4o3)[nH]c2c1,3.21 µg/mL
21,Cc1ccc2cccc(OCCOc3ccccc3C(C)C)c2n1,4.02 µg/mL
22,COc1cccc(OCC(=O)c2ccc(Br)cc2)c1,0.37 µg/mL
23,Cc1ccc2[nH]c3c(c2c1)CCCC3NCC(O)Cc1ccccc1 (stereo unspecified),6.03 µg/mL
24,O=C(Nc1nc2ccccc2[nH]1)c1ccc(Br)cc1,14.5 µg/mL

row,SMILES,IC50
1,COc1cc(C(=O)Oc2ccc3c(c2)CCCC3)cc(OC)c1OC,> 50 µg/mL (inactive)
2,Cc1ccc([N+](=O)[O-])cc1NC(=O)Nc1cccc(Cl)c1,0.21 µg/mL
3,CCOc1cccc(N2C(=O)CC(S/C(N)=N/N=C(\C)c3ccc(Cl)s3)C2=O)c1 (stereo unspecified),2.62 µg/mL
4,CCOC(=O)COc1ccc2c(C)c(CC(=O)OC)c(=O)oc2c1,35 µg/mL
5,O=C(CCNc1cccc(Cl)c1)c1ccco1,3.68 µg/mL
6,Nc1ccccc1NCCOc1ccccc1,1.01 µg/mL
7,Cc1ccc(CSCC(=O)Nc2ccc(Cl)c(Cl)c2)cc1,3.06 µg/mL
8,Cc1nc(SCc2csc(C)n2)c2c3c(sc2n1)CCCC3,1.61 µg/mL
9,Clc1ccc(OCc2ccccc2Cl)c(CNC2CCCCC2)c1,2.51 µg/mL
10,CCOC(=O)CSc1nnc2c3sc4nc(N5CCOCC5)c5c(c4c3ncn12)CC(C)(C)OC5,1.33 µg/mL
11,O=C(OCc1c(F)cccc1Cl)c1cc2ccccc2oc1=O,> 50 µg/mL (inactive)
12,COc1ccc(C(=O)N=Nc2c(O)[nH]c3ccc(Br)cc23)cc1,19.9 µg/mL
13,O=C(Oc1ccc(F)cc1)c1ccc(Oc2ccc([N+](=O)[O-])cc2)cc1,1.12 µg/mL
14,O=C(CC(O)(C(F)(F)F)C(F)(F)F)Nc1cccc(C(F)(F)F)c1,3.59 µg/mL
15,CC1CCN(c2ccc(NC(=O)c3ccc([N+](=O)[O-])o3)cc2)CC1,0.31 µg/mL
16,Clc1ccc(CN2CCN(c3ncnc4scc(-c5cccs5)c34)CC2)cc1,20.5 µg/mL
17,CCOC(=O)c1c(-c2ccccc2)oc2ccc(O)c(CN3CCCC3)c12,3.37 µg/mL
18,CC(Oc1ccc(C(=O)NC2CCCCC2)cc1)C(=O)OCc1ccccc1Cl (stereo unspecified),0.95 µg/mL
19,COc1ccccc1Nc1nc(N)nc(CN2CCC(Cc3ccccc3)CC2)n1,37.8 µg/mL
20,Cc1ccc(NC(=O)C(=O)NNC(=O)c2ccco2)cc1Cl,1.41 µg/mL
21,COc1ccc(CNc2ccc3c(c2)ncn3-c2ccccc2)cc1OC,8.63 µg/mL
22,COc1ccc(-n2nc3ccc(NC(=O)c4ncn[nH]4)cc3n2)cc1Cl,> 50 µg/mL (inactive)
23,O=C(Oc1ccc(Cl)c2cccnc12)c1ccccc1Br,> 50 µg/mL (inactive)
24,CCc1ccc(C(=O)NC(=S)Nc2ccc(C(=O)OC)cc2)cc1,3.98 µg/mL

row,SMILES,IC50
1,Cc1cc(NC(=O)CSc2nnc(-c3ccccc3Cl)o2)no1,2.43 µg/mL
2,C=CCCCCCCCCC(=O)Nc1ccccc1C,8.62 µg/mL
3,NC(=O)c1c(NC(=O)c2c(F)c(F)c(F)c(F)c2F)sc2c1CCC2,2.77 µg/mL
4,COC(=O)CSc1nnc(SCc2ccc(OC)cc2)s1,2.28 µg/mL
5,O=C(Nc1ccc(Cl)cc1)c1cc([N+](=O)[O-])ccc1O,17.7 µg/mL
6,S=C(NCCc1ccc(Cl)cc1)Nc1ccc(Nc2ccccc2)cc1,2.09 µg/mL
7,CCn1cc(C(=O)O)c(=O)c2cc(F)c(N3CCN(C(=O)Nc4ccccc4)CC3)cc21,> 50 µg/mL (inactive)
8,CC(=O)OCC#CCSc1nnc(-c2ccc(Br)cc2)o1,< 0.1 µg/mL
9,COc1cc(/C=C/c2ccc3cccc(O)c3n2)cc([N+](=O)[O-])c1O,0.41 µg/mL
10,Cc1cc(C(=O)NCC23CC4CC(CC(C4)C2)C3)ccc1[N+](=O)[O-],0.42 µg/mL
11,Nc1cc(N)c2cc(-c3ccccc3)oc2c1,> 50 µg/mL (inactive)
12,CCOC(=O)c1cc(=O)c(-c2ccccc2)n[nH]1,3.8 µg/mL
13,NC(=O)c1c(NC(=O)c2cc3ccccc3oc2=O)sc2c1CCCCCC2,1.03 µg/mL
14,Cc1c(OC(=O)c2cccc([N+](=O)[O-])c2)ccc2c1CCCC2,2.64 µg/mL
15,CC(C)(C)C(=O)NC(=S)NNC(=O)C(c1ccccc1)c1ccccc1,3.01 µg/mL
16,Cc1[nH]n(-c2ccccc2)c(=S)c1C=Nc1ccccc1O,2.35 µg/mL
17,COc1ccc(Cl)cc1C(=O)Nc1ccc(N2CCN(Cc3ccccc3F)CC2)cc1,3.36 µg/mL
18,COc1cccc(NC(=O)CSc2ccc(Br)cc2)c1,11.7 µg/mL
19,CC(C)(C)c1ccc(C(=O)Nc2nc(-c3ccccc3)ns2)cc1,3.05 µg/mL
20,CCOc1cc(C(=O)O/N=C(\N)Cc2ccc(Cl)cc2Cl)cc(OCC)c1OCC,38 µg/mL
